{
  "source": "paper PMC9739537",
  "about": "“Bioassay-Guided Fractionation with Antimalarial and Antimicrobial Activities of Paeonia officinalis” (Molecules, 2022)",
  "key": {"P. falciparum W2": {"test_system": "P. falciparum W2", "experiment": "Antimalarial assay (plasmodial LDH activity), W2 strain", "assay_type": "cell-based, Plasmodium falciparum", "conditions": "for IC50: Plasmodium falciparum, read-out: IC50 antiplasmodial activity, P. falciparum W2; for SI (Selectivity index), P. falciparum W2: VERO vs P. falciparum W2", "protocol": "(§1) The assay is based on the measurement of plasmodial LDH activity. The test was conducted using a suspension of red blood cells infected with D6 or W2 strains of P. falciparum (200 µL, with 2% parasitemia, and 2% hematocrit in RPMI 1640 medium supplemented with 10% human serum and 60 µg/mL Amikacin) into the wells of a 96-well plate containing 10 µL of test samples diluted in medium at various concentrations. The plate was put in a modular incubation chamber (Billups-Rothenberg, San Diego, CA, USA); flushed with a gas mixture consisting of 90% N2, 5% O2, and 5% CO2; and incubated for 72 h at 37 °C. Parasitic LDH activity was measured by utilizing Malstat reagent (Flow Inc., Portland, OR, USA). Briefly, 20 µL of the incubation mixture was combined with 100 µL of the Malstat reagent and incubated at room temperature for 30 min. Then, twenty microliters of a 1:1 mixture of NBT/PES (Sigma, St. Louis, MO, USA) was added and the plate was further incubated in the dark for 1 h. The reaction was then stopped by the addition of 100 µL of a 5% acetic acid solution. The plate was read at 650 nm using the EL-340 Biokinetics Reader (Bio-Tek Instruments, Winooski, VT, USA). The dose–response curves were used to calculate IC50 values. […] Dimethyl sulfoxide (0.25%) was used as vehicle control."}, "VERO": {"test_system": "VERO", "experiment": "Cytotoxicity toward mammalian kidney fibroblasts (Vero)", "assay_type": "cell-based", "conditions": "Chlorocebus sabaeus, VERO cells"}, "P. falciparum D6": {"test_system": "P. falciparum D6", "experiment": "Antimalarial assay (plasmodial LDH activity), D6 strain", "assay_type": "cell-based, Plasmodium falciparum", "conditions": "for IC50: Plasmodium falciparum, read-out: IC50 antiplasmodial activity, P. falciparum D6; for SI (Selectivity index), P. falciparum D6: VERO vs P. falciparum D6", "protocol": "as §1"}, "C. neoformans": {"test_system": "C. neoformans", "experiment": "Antimicrobial susceptibility testing (modified CLSI), C. neoformans", "assay_type": "cell-based, Cryptococcus neoformans", "from_the_text": "(§2) The microorganism strains that were employed to test the antimicrobial activity were Candida albicans Pinh, C. neoformans Pinh, Aspergillus fumigatus Pinh, methicillin-resistant Staphylococcus aureus Pinh (MRS), E. coli Pinh, Pseudomonas aeruginosa Pinh, Klebsiella pneumoniae Pinh, and Vancomycin-resistant Enterococci (VRE) Pinh. The strains were bought from the American Type Culture Collection. A modified version of the CLSI methodology was used for the susceptibility testing. A final DMSO concentration of 1% was maintained in the assay by serially diluting all samples in 20% DMSO/saline and transferring them in duplicate to 384 well flat-bottom microplates. Following the McFarland standard, inocula were created by adjusting the OD630 of microbe suspensions in incubation broth. C. albicans was cultured in RPMI 1640 broth (2% dextrose, 0.03% glutamine, and MOPS at pH 6); C. neoformans in Sabouraud Dextrose; MRS, VRE, E. coli, K. pneumoniae, and P. aeruginosa in cation-adjusted Mueller–Hinton at pH 7.3, and A. fumigatus in RPMI 1640 broth (2% dextrose, 0.03% glutamine, buffered with 0.165 M MOPS at pH 7). Five percent Alamar Blue was added in A. fumigatus, VRE, and MRS. In every assay, there were drug controls for bacteria and fungi. […] A Bio-Tek plate reader was used to measure the optical density (530 nm) or fluorescence (544ex/590em) before and after incubation."}, "[1]": {"test_system": "methicillin-resistant Staphylococcus aureus (MRS)", "experiment": "Antimicrobial susceptibility testing (modified CLSI), MRS", "assay_type": "cell-based", "from_the_text": "as §2"}, "Klebsiella pneumoniae": {"test_system": "Klebsiella pneumoniae", "experiment": "Antimicrobial susceptibility testing (modified CLSI), K. pneumoniae", "assay_type": "cell-based", "from_the_text": "as §2"}, "Pseudomonas aeruginosa": {"test_system": "Pseudomonas aeruginosa", "experiment": "Antimicrobial susceptibility testing (modified CLSI), P. aeruginosa", "assay_type": "cell-based", "from_the_text": "as §2"}, "[2]": {"test_system": "Candida albicans, C. neoformans, Aspergillus fumigatus, MRS, E. coli, Pseudomonas aeruginosa, Klebsiella pneumoniae, VRE", "experiment": "Antimicrobial panel (all assayed microorganisms)", "assay_type": "cell-based", "conditions": "at the tested concentration", "from_the_text": "as §2"}},
  "note": "Where two headings read alike, the source gives them in different places.",
  "data": [
    {"smiles": "CCN(CC)CCCC(C)Nc1ccnc2cc(Cl)ccc12", "note": "(stereo not shown) [Chloroquine, chloroquine, reference compound]", "values": [
      {"measurement": "IC50", "setting": "P. falciparum W2; W2, 72 h", "result": 0.14, "unit": "µg/mL"},
      {"measurement": "IC50", "setting": "VERO", "result": "> 0.24", "unit": "µg/mL"},
      {"measurement": "IC50", "setting": "P. falciparum D6; D6, 72 h", "result": 0.026, "unit": "µg/mL"}
    ]},
    {"smiles": "OC(Cn1cncn1)(Cn1cncn1)c1ccc(F)cc1F", "note": "[Fluconazole, fluconazole]", "values": [
      {"measurement": "IC50 antimicrobial activity, C. neoformans", "setting": "C. neoformans", "result": 4.684, "unit": "µg/mL"},
      {"measurement": "IC50", "setting": "C. neoformans; Cryptococcus neoformans", "result": 4.68, "unit": "µg/mL"}
    ]},
    {"smiles": "C[C@@H](O)[C@H]1C(=O)N2C(C(=O)O)=C(S[C@@H]3CN[C@H](C(=O)N(C)C)C3)[C@H](C)[C@H]12", "note": "[Meropenem, meropenem]", "values": [
      {"measurement": "IC50", "setting": "[1]", "result": 46.9, "unit": "µg/mL"},
      {"measurement": "IC50 antimicrobial activity, K. pneumoniae", "setting": "Klebsiella pneumoniae", "result": 9.143, "unit": "µg/mL"},
      {"measurement": "IC50 antimicrobial activity, K. pneumoniae", "setting": "Klebsiella pneumoniae; listed as meropenem", "result": 43.94, "unit": "µg/mL"},
      {"measurement": "IC50", "setting": "Pseudomonas aeruginosa", "result": 28.7, "unit": "µg/mL"}
    ]},
    {"smiles": "COC(=O)c1cc(O)c(O)c(O)c1", "note": "[compound 3, methyl gallate]", "values": [
      {"measurement": "IC50", "setting": "P. falciparum W2; W2 strain, 72 h", "result": 0.61, "unit": "µg/mL"},
      {"measurement": "SI (Selectivity index), P. falciparum W2", "setting": "P. falciparum W2", "result": ">7.8"},
      {"measurement": "antiplasmodial activity against P. falciparum W2 (in words)", "setting": "P. falciparum W2; W2 strain", "result": "remarkable antiplasmodial activity"},
      {"measurement": "IC50", "setting": "VERO", "result": "> 4.76", "unit": "µg/mL"},
      {"measurement": "antimicrobial activity (in words)", "setting": "[2]", "result": "no exhibition of antimicrobial activity"},
      {"measurement": "antiplasmodial activity against P. falciparum D6 (in words)", "setting": "P. falciparum D6; D6 strain", "result": "remarkable antiplasmodial activity"},
      {"measurement": "IC50", "setting": "P. falciparum D6; D6 strain, 72 h", "result": 1.57, "unit": "µg/mL"},
      {"measurement": "SI (Selectivity index), P. falciparum D6", "setting": "P. falciparum D6", "result": ">3"}
    ]},
    {"smiles": "C[C@@]12C[C@@]3(O)O[C@@H](O1)[C@]1(COC(=O)c4ccccc4)[C@@H]3C[C@]12O[C@@H]1O[C@H](COC(=O)c2cc(O)c(O)c(O)c2)[C@@H](O)[C@H](O)[C@H]1O", "note": "[compound 5, galloyl paeoniflorin]", "values": [
      {"measurement": "IC50", "setting": "P. falciparum W2; W2 strain, 72 h", "result": 2.91, "unit": "µg/mL"},
      {"measurement": "SI (Selectivity index), P. falciparum W2", "setting": "P. falciparum W2", "result": ">1.6"},
      {"measurement": "antiplasmodial activity against P. falciparum W2 (in words)", "setting": "P. falciparum W2; W2 strain", "result": "remarkable antiplasmodial activity"},
      {"measurement": "IC50", "setting": "VERO", "result": "> 4.76", "unit": "µg/mL"},
      {"measurement": "antimicrobial activity (in words)", "setting": "[2]", "result": "no exhibition of antimicrobial activity"},
      {"measurement": "antiplasmodial activity against P. falciparum D6 (in words)", "setting": "P. falciparum D6; D6 strain", "result": "remarkable antiplasmodial activity"},
      {"measurement": "IC50", "setting": "P. falciparum D6; D6 strain, 72 h", "result": 4.72, "unit": "µg/mL"},
      {"measurement": "SI (Selectivity index), P. falciparum D6", "setting": "P. falciparum D6", "result": ">1"}
    ]}
  ]
}
